{"source": "paper PMC10908623", "about": "“X-ray structure and characterization of a probiotic Lactobacillus rhamnosus Probio-M9 L-rhamnose isomerase” (Applied Microbiology and Biotechnology, 2024)", "key": {"[1]": {"biological_target": "T1, LrL-RhI (L. rhamnosus Probio-M9 L-rhamnose isomerase) (Lacticaseibacillus rhamnosus, UniProt A0A171J5T1)", "T1 construct": "gene rhaA; full length, 426 residues, 48707 Da; synthesized gene in pQE60, C-terminal His-tag kept; E. coli JM109; homotetramer", "T1 sequence (A0A171J5T1 1-426)": "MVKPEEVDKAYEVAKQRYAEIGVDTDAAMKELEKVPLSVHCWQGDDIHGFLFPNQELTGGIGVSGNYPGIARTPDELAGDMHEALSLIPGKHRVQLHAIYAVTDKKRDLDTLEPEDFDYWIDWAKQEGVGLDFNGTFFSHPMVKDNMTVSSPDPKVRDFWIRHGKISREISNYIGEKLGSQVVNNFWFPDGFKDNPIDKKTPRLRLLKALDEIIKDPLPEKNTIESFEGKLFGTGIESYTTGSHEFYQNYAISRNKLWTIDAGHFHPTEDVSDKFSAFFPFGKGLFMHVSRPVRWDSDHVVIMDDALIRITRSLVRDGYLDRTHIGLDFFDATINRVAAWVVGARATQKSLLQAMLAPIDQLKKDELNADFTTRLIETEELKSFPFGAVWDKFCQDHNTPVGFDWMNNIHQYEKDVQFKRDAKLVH", "assay": "X-ray crystal structure of the complex (soaking), […] Å", "format": "binding", "details": "30% (w/v) D-allose soak; Mn2+; crystals at pH 6.5; catalytic site; also a surface site"}, "[2]": {"biological_target": "T1, LrL-RhI (L. rhamnosus Probio-M9 L-rhamnose isomerase)", "assay": "X-ray crystal structure of the complex (soaking), […] Å", "format": "binding", "details": "30% (w/v) D-allulose soak; Mn2+; crystals at pH 6.5; catalytic site; also a surface site"}, "[3]": {"biological_target": "the molecule itself", "assay": "crystal structure; sitting-drop vapor diffusion at 20 C, 0.1 M MES pH 6.5, 15% PEG550MME; LrL-RhI alone and crystals soaked in 30% (w/v) L-rhamnose, D-allulose or D-allose; space group P212121, four molecules in the asymmetric unit"}}}
{"molecule": "OC[C@H]1OC(O)[C@H](O)[C@H](O)[C@@H]1O", "note": "(stereo partly drawn) [D-allose]", "values": [{"measurement": "X-ray crystal structure of the complex (soaking), 1.71 Å", "setting": "[1]", "result": "The bound D-allose exhibits a pyranose form and appears to be β-D-allopyranose"}]}
{"molecule": "OC[C@]1(O)OC[C@@H](O)[C@@H](O)[C@H]1O", "note": "[D-allulose]", "values": [{"measurement": "X-ray crystal structure of the complex (soaking), 1.73 Å", "setting": "[2]", "result": "The bound D-allulose shows a ring-opened structure."}]}
{"molecule": "L-rhamnose isomerase from Lactobacillus rhamnosus Probio-M9 (enzyme, UniProt A0A171J5T1 1-426, looked up, L-rhamnose isomerase (putative LrL-RhI) of Lactobacillus rhamnosus Probio-M9, 426 amino acid residues, 48707 Da; also called LrL-RhI; L-RhI; not shown: His-tag, C-terminal, kept) MVKPEEVDKAYEVAKQRYAEIGVDTDAAMKELEKVPLSVHCWQGDDIHGFLFPNQELTGGIGVSGNYPGIARTPDELAGDMHEALSLIPGKHRVQLHAIYAVTDKKRDLDTLEPEDFDYWIDWAKQEGVGLDFNGTFFSHPMVKDNMTVSSPDPKVRDFWIRHGKISREISNYIGEKLGSQVVNNFWFPDGFKDNPIDKKTPRLRLLKALDEIIKDPLPEKNTIESFEGKLFGTGIESYTTGSHEFYQNYAISRNKLWTIDAGHFHPTEDVSDKFSAFFPFGKGLFMHVSRPVRWDSDHVVIMDDALIRITRSLVRDGYLDRTHIGLDFFDATINRVAAWVVGARATQKSLLQAMLAPIDQLKKDELNADFTTRLIETEELKSFPFGAVWDKFCQDHNTPVGFDWMNNIHQYEKDVQFKRDAKLVH", "values": [{"measurement": "stoichiometry N", "setting": "[3]", "result": 4}]}
